Key:
[1] = test system: ConA-induced hepatitis in mice; experiment: ConA-induced hepatitis in mice; assay type: in vivo, BALB/c mice; details: 50 mg·kg^−1 IP 30 min prior to ConA
Method: ConA was dissolved in saline for injection at a concentration of 2 mg·mL^−1. The mice were given IP doses of compound 34 or the equivalent volume of vehicle (control group) and, 30 min later, animals were given an IV injection of ConA (20 mg·kg^−1) via tail vein. An additional group of mice was given vehicle alone IP followed by an IV injection of saline. The mice were sacrificed by exsanguination at 2, 8, and 24 h post-ConA dosing. Blood samples were collected and handled as described above.
Serum aspartate transaminase (AST) and alanine transaminase (ALT) activities were analyzed using the chemistry analyzer BS-800 (Shenzhen Mindray Bio-medical Electronics Co., Ltd., Shenzhen, China). Cytokine levels in mouse serum (TNFα, IL-4, IL-6, and interferon (IFN)γ) were quantified by a Magnetic Luminex® Assay (R&D Systems, Inc, Minneapolis, MN, USA) using a Magpix platform (Luminex Corp., Austin, TX, USA).

[2] = Pharmacokinetic study in mice, single IP dose, serum; assay type: in vivo, female C57BL/6 mice; details: female, mouse
Method: Female Lewis rats and female C57BL/6 mice were administered IP with compound 34 dissolved in vehicle at a dose of 20 and 50 mg·kg^−1, respectively. Rats and mice were sacrificed at different time points (n = 3 per time point) following compound administration by decapitation under deep anesthesia. Thereafter, blood samples were harvested and allowed to clot at room temperature for 20 min and serum was separated by centrifugation at 3000 rpm for 10 min (EBA 12 R, Hettich, Germany). The obtained serum samples were stored at −80 °C until analysis.
Concentrations of compound 34 in rat and murine serum were quantified by an HPLC/UV method. To isolate the investigated compound, 100 μL of serum containing compound 34 or the same volume of blank serum spiked with a standard solution of compound 34, 10 μL of 4-(8-((furan-2-ylmethyl)amino)-1,3-dimethyl-2,6-dioxo-2,3,6,7-tetrahydro-1H-purin-7-yl)-N’-(2-hydroxybenzylidene)butanehydrazide methanol solution was used as an internal standard (IS) at a concentration of 80 μg·mL^−1, and 50 μL of 0.2 M NaOH solution was added. Subsequently, 1 mL of ethyl acetate was added to each sample and extraction was performed for 20 min on a VXR Vibrax shaker (IKA, Germany). Then, the samples were centrifuged (10,000× g, 5 min) on EBA 12 R centrifuge (Hettich, Germany) and the organic layers were collected and transferred to clean tubes. Subsequently, the organic layers were evaporated under a mild stream of nitrogen at 37 °C and the residues were dissolved in 100 μL of mobile phase and subjected to an HPLC analysis. The HPLC system (LaChrom Elite, Merck-Hitachi, Germany) consisted of L-2420 UV-VIS detector, an L-2200 autosampler, and an L-2130 pump. EZChrome Elite v. 3.2 (Merck-Hitachi, Germany) software was used for data acquisition and integration. The analysis was performed at ambient temperature on a LiChrospher 100 RP-18 column (250 × 4 mm) and a LiChroCART (4 × 4 mm) pre-column (Merck, Germany). The mobile phase was composed of acetonitrile mixed with 20 mM KH2PO4 water solution (pH = 4.5) at the ratio of 40:60 (v/v). A flow rate was 1 mL·min^−1 and analytical wavelength was set at 302 nm. The retention times of compound 34 and IS were approximately 6.3 min and 10.6 min. The method was validated according to the FDA Bioanalytical Method Validation Guidance for Industry (2018). The calibration curves constructed by plotting the peak area of the studied compound to the peak area of the IS vs. compound concentrations were linear in the tested concentration range, i.e., from 0.05–10 mg·L^−1 (r > 0.998). The limit of quantification was 0.05 mg·L^−1. […] The assay presented acceptable intra- and inter-assay precision and accuracy (i.e., they were within 15% of the CV and 15% of the nominal concentration, respectively) for all quality control concentrations (0.1, 1, and 5 mg·L^−1). The mean extraction efficiencies of the analyzed compound and the IS were above 80%.
Pharmacokinetics of compound 34 were investigated in rats and mice following single IP administration. One- and two-compartment models with first-order absorption and linear elimination were tested, but only the one-compartment model appropriately described the concentration-time courses of compound 34 in both rat and murine serum. […] The equations of the model are as follows:(1) dA/dt=−ka×A;A0=D×F, (2) Vd×dCp/dt=ka×A−CLT×Cp; Cp0=0 where A is the amount of the drug at the absorption site, ka is the first-order rate constant of drug absorption, D is the dose, F is the bioavailability, Vd is the volume of distribution, CLT is the total clearance, and Cp is the serum concentration of compound 34.

For `Cn1c(=O)c2c(nc(NCCc3ccccc3)n2CCCC(=O)NN=Cc2ccc(O)c(O)c2O)n(C)c1=O` [Compound 34, 4-(1,3-dimethyl-2,6-dioxo-8-(phenethylamino)-2,3,6,7-tetrahydro-1H-purin-7-yl)-N′-(2,3,4-trihydroxybenzylidene)butanehydrazide], the “serum IFNγ level compared to the control group” value ([1]; 2 h after ConA injection) was “not significantly different”, the “serum IL-4 concentration, lower compared to the control group” value ([1]; 2 h after ConA injection) was 76% and the “serum IL-6 level compared to the control group” value ([1]; 2 h after ConA injection) was “not significantly different”. The “serum TNFα concentration, lower compared to the control group” value ([1]; 2 h after ConA injection) was 34%, the “ALT serum activity, reduction compared to the control group” value ([1]; 8 h post-ConA injection) was 73% and the “AST serum activity, reduction compared to the control group” value ([1]; 8 h post-ConA injection) was 59%. The “serum IFNγ concentration, lower compared to the control group” value ([1]; 24 h post-ConA dosing) was 36%, the “serum IL-4 level, treatment vs control group” value ([1]; 24 h post-ConA dosing) was “not different” and the “serum IL-6 level, treatment vs control group” value ([1]; 24 h post-ConA dosing) was “not different”. For the same compound, the absorption half-life ([2]; C57BL/6, serum, 50 mg·kg^−1, IP, solution in DMSO:PEG400:sterile water (10:40:50)) was 4.5 min, the Vd/F ([2]; C57BL/6, single IP dose 50 mg·kg^−1, serum, one-compartment model, read-out: Vd/F Apparent volume of distribution, Final Estimate (CV%)) was 21.7 L/kg and the AUC ([2]; C57BL/6, single IP dose 50 mg·kg^−1, serum, read-out: AUC Area under the concentration-time curve, Final Estimate (CV%) (converted)) was 818 ng·h/mL. It also gave a CL/F ([2]; C57BL/6, single IP dose 50 mg·kg^−1, serum, read-out: CLT/F Apparent clearance, Final Estimate (CV%)) of 1020 mL/min/kg, a Cmax ([2]; C57BL/6, single IP dose 50 mg·kg^−1, serum, read-out: Cmax Maximum serum concentration, Final Estimate (CV%)) of 1370 ng/mL and a half-life ([2]; C57BL/6, single IP dose 50 mg·kg^−1, serum, read-out: t0.5 Elimination half-life, Final Estimate (CV%)) of 14.7 min.
